Reference: patent US5939416A, “Benzo (5,6) cycloheptapyridine compounds useful as farnesyl protein transferase inhibitors” (Schering Corporation, priority 1997, dated 1999)

How the values were obtained:
[1] = test system: COS Cell; test: COS Cell IC50 (Cell-Based Assay)
Method: (§1) FPT IC50 (inhibition of farnesyl protein transferase, in vitro enzyme assay), COS Cell IC50 (Cell-Based Assay), GGPT IC50 (inhibition of geranylgeranyl protein transferase, in vitro enzyme assay), Cell Mat Assay, and anti-tumor activity (in vivo anti-tumor studies) are determined by the assay procedures described in WO 95/10516.

[2] = target: farnesyl protein transferase (Homo sapiens, UniProt P49354+P49356); test: FPT IC50 (inhibition of farnesyl protein transferase, in vitro enzyme assay); type: biochemical
Method: as §1

Structure (SMILES)	IC50 [1] [nM]	IC50 [2] [nM]
O=C1NCC(CC(=O)N2CCC(C3c4ncc(Br)cc4CCc4cc(Cl)cc(Br)c43)CC2)CO1 (centres unmarked) [Example 2, 4-(3,10-Dibromo-8-chloro-6,11-dihydro-5H-benzo[5,6]cyclohepta[1,2-b]pyridin-11-yl)-1-[(tetrahydro-2-oxo-2H-1,3-oxazin-5-yl)acetyl]piperidine]	9	3.98
O=C1NCC(CC(=O)N2CCC(C3c4ncc(Br)cc4CCc4cc(Cl)cc(Cl)c43)CC2)CO1 (centres unmarked) [Example 1, 4-(3-Bromo-8,10-dichloro-6,11-dihydro-5H-benzo[5,6]cyclohepta[1,2-b]pyridin-11-yl)-1-[(tetrahydro-2-oxo-2H-1 3-oxazin-5-yl)acetyl]piperidine]	50	15
O=C1N[C@H](C(=O)N2CCC(CC(=O)N3CCC([C@H]4c5ncc(Br)cc5CCc5cc(Cl)cc(Br)c54)CC3)CC2)CO1 [Example 3]	7	2.3
O=C1NC[C@@H](C(=O)N2CCC(CC(=O)N3CCC([C@H]4c5ncc(Br)cc5CCc5cc(Cl)cc(Br)c54)CC3)CC2)N1 [Example 4]	33	1.8
